These results are taken from patent US20250195536A1, “BICYCLOOCTANE KRAS INHIBITORS” (Incyte Corporation, priority 2023, published 2025).

Structures are written as SMILES.

Data set [1] in a line: Caco2 assay (permeability, Papp A-B). Format: in vitro ADME. The note with it: human, Caco-2, absorptive direction (A-B), 50 μM test compound, 4% BSA in receiver. A digest of the protocol:
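Caco-2 monolayers, 22-25 days on Transwells, TEER 300 Ω·cm^2, dosed apically with 50 μM compound in HBSS; basolateral HBSS with 4% BSA. 120 min at 37 °C, samples quantified by LCMS; Papp (A-B) from receiver-side cumulative flux slope, donor volume, surface area and initial donor amount.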

Data set [2] has as its target KRAS G12D (Homo sapiens, UniProt P01116, G12D). Nature of the data set: GDP-GTP exchange assay (KRAS G12D).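 Note: one dagger IC50 up to 100 nM and two daggers above 100 nM up to 1 μM.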 The class given is biochemical. The conditions noted are these: bodipy-GDP/GppNHp exchange with SOS1; 4 h pre-incubation, 2 h reaction. A digest of the protocol:
(§1)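 Bodipy-GDP-loaded KRAS (2.5 nM final) was pre-incubated 4 h at r.t. with inhibitor in Hepes pH 7.5 buffer with MgCl2, then exchange started with GppNHp (500 μM) and SOS1 (150 nM) final. Fluorescence (ex 485/em 520 nm) read after 2 h for G12D, 3 h for G12V; IC50 from four-parameter logistic fit.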

In data set [3] the target is KRAS G12V (Homo sapiens, UniProt P01116, G12V). Nature of the data set: GDP-GTP exchange assay (KRAS G12V).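 Note: one dagger IC50 up to 100 nM and two daggers above 100 nM up to 1 μM.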 The conditions noted are these: bodipy-GDP/GppNHp exchange with SOS1; 3 h incubation after GppNHp-SOS1. Format: biochemical. A digest of the protocol:
as §1

Chain of KRAS G12D (P01116 1-188 isoform P01116-2 G12D): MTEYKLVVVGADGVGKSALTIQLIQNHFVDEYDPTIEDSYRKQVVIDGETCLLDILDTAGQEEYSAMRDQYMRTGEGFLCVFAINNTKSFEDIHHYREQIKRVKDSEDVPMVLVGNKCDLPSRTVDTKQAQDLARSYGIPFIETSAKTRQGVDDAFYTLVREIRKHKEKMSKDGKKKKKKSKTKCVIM
Chain of KRAS G12V (P01116 1-188 isoform P01116-2 G12V): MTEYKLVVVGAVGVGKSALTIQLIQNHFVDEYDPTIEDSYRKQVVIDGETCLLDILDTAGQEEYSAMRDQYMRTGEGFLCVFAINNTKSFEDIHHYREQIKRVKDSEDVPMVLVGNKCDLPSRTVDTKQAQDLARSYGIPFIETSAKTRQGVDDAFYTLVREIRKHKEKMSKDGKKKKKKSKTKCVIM

The molecule `Cc1nc2c(F)c(-c3cccc(Cl)c3Cl)c(CCC#N)cc2c2c1cc([C@H]1[C@H]3C[C@H](CN(c4ncc(OC(F)F)cn4)C3)N1C(=O)C1CC1)n2[C@H]1[C@H]2CN[C@@H]1C2` (atropisomer, axis not shown; (Ra)) [Example 45, 3-((Ra)-1-((1R,4R,5S)-2-azabicyclo[2.1.1]hexan-5-yl)-2-((1S,5R,7R)-6-(cyclopropanecarbonyl)-3-(5-(difluoromethoxy)pyrimidin-2-yl)-3,6-diazabicyclo[3.2.1]octan-7-yl)-7-(2,3-dichlorophenyl)-6-fluoro-4-methyl-1H-pyrrolo[3,2-c]quinolin-8-yl)propanenitrile] returned a Papp A→B at 120 min, 50 μM in data set [1] of no more than 0.5 ×10⁻⁶ cm/s. Moreover, in data set [2], the “G12D_exchange (KRAS_G12D exchange assay IC50)” value (“G12D_exchange” for short) is on record as “†”. In addition, in data set [3], the “G12V_exchange (KRAS_G12V exchange assay IC50)” value (from here on “G12V_exchange”) was “†”.

For `Cc1nc2c(F)c(-c3cccc(Cl)c3Cl)c(CCC#N)cc2c2c1cc([C@H]1[C@H]3C[C@H](CN(c4ncccc4F)C3)N1C(=O)C1CC1)n2[C@H]1[C@H]2CN[C@@H]1C2` (atropisomer, axis not shown; (Ra)) [Example 46, 3-((Ra)-1-((1R,4R,5S)-2-azabicyclo[2.1.1]hexan-5-yl)-2-((1S,5R,7R)-6-(cyclopropanecarbonyl)-3-(3-fluoropyridin-2-yl)-3,6-diazabicyclo[3.2.1]octan-7-yl)-7-(2,3-dichlorophenyl)-6-fluoro-4-methyl-1H-pyrrolo[3,2-c]quinolin-8-yl)propanenitrile], the Papp A→B at 120 min, 50 μM in data set [1] was no more than 0.5 ×10⁻⁶ cm/s. Besides, in data set [2], the “G12D_exchange” value was “†”. Besides, the “G12V_exchange” value in data set [3] is reported as “†”.

On to `Cc1nc2c(F)c(-c3cccc(Cl)c3Cl)c(CCC#N)cc2c2c1cc([C@H]1[C@H]3C[C@H](CN(c4ncccc4C#N)C3)N1C(=O)C1CC1)n2[C@H]1[C@H]2CN[C@@H]1C2` (atropisomer, axis not shown; (Ra)) [Example 47, 2-((1S,5R,7R)-7-((Ra)-1-((1R,4R,5S)-2-azabicyclo[2.1.1]hexan-5-yl)-8-(2-cyanoethyl)-7-(2,3-dichlorophenyl)-6-fluoro-4-methyl-1H-pyrrolo[3,2-c]quinolin-2-yl)-6-(cyclopropanecarbonyl)-3,6-diazabicyclo[3.2.1]octan-3-yl)nicotinonitrile], for which, in data set [1], the apparent permeability from apical to basolateral (Papp A→B) at 120 min, 50 μM was no more than 0.5 ×10⁻⁶ cm/s. Besides, the “G12D_exchange” value in data set [2] is “††”. Further, in data set [3], the “G12V_exchange” value was “†”.

`Cc1cccnc1N1C[C@@H]2C[C@H](C1)N(C(=O)C1CC1)[C@H]2c1cc2c(C)nc3c(F)c(-c4cccc(Cl)c4Cl)c(CCC#N)cc3c2n1[C@H]1[C@H]2CN[C@@H]1C2` (atropisomer, axis not shown; (Ra)) [Example 48, 3-((Ra)-1-((1R,4R,5S)-2-azabicyclo[2.1.1]hexan-5-yl)-2-((1S,5R,7R)-6-(cyclopropanecarbonyl)-3-(3-methylpyridin-2-yl)-3,6-diazabicyclo[3.2.1]octan-7-yl)-7-(2,3-dichlorophenyl)-6-fluoro-4-methyl-1H-pyrrolo[3,2-c]quinolin-8-yl)propanenitrile]: the Papp A→B at 120 min, 50 μM in data set [1] was in the range of 0.5 to 1 ×10⁻⁶ cm/s. Besides, the “G12D_exchange” value in data set [2] is on record as “†”. Also, in data set [3], the “G12V_exchange” value was “†”.

In data set [1], `COc1cccnc1N1C[C@@H]2C[C@H](C1)N(C(=O)C1CC1)[C@H]2c1cc2c(C)nc3c(F)c(-c4cccc(Cl)c4Cl)c(CCC#N)cc3c2n1[C@H]1[C@H]2CN[C@@H]1C2` (atropisomer, axis not shown; (Ra)) [Example 49, 3-((Ra)-1-((1R,4R,5S)-2-azabicyclo[2.1.1]hexan-5-yl)-2-((1S,5R,7R)-6-(cyclopropanecarbonyl)-3-(3-methoxypyridin-2-yl)-3,6-diazabicyclo[3.2.1]octan-7-yl)-7-(2,3-dichlorophenyl)-6-fluoro-4-methyl-1H-pyrrolo[3,2-c]quinolin-8-yl)propanenitrile] showed a Papp A→B at 120 min, 50 μM of no more than 0.5 ×10⁻⁶ cm/s. For the same molecule, the “G12D_exchange” value in data set [2] was “†”. Moreover, in data set [3], the “G12V_exchange” value is “†”.

In data set [1], `Cc1nc2c(F)c(-c3cccc(Cl)c3Cl)c(CCC#N)cc2c2c1cc([C@H]1[C@H]3C[C@H](CN(c4nccc(C(F)(F)F)c4F)C3)N1C(=O)C1CC1)n2[C@H]1[C@H]2CN[C@@H]1C2` (atropisomer, axis not shown; (Ra)) [Example 50, 3-((Ra)-1-((1R,4R,5S)-2-azabicyclo[2.1.1]hexan-5-yl)-2-((1S,5R,7R)-6-(cyclopropanecarbonyl)-3-(3-fluoro-4-(trifluoromethyl)pyridin-2-yl)-3,6-diazabicyclo[3.2.1]octan-7-yl)-7-(2,3-dichlorophenyl)-6-fluoro-4-methyl-1H-pyrrolo[3,2-c]quinolin-8-yl)propanenitrile] returned an apparent permeability from apical to basolateral (Papp A→B) at 120 min, 50 μM of no more than 0.5 ×10⁻⁶ cm/s. Further, in data set [2], the “G12D_exchange” value was “††”. The “G12V_exchange” value in data set [3] is listed as “†”.

In data set [1], `Cc1ccnc(N2C[C@@H]3C[C@H](C2)N(C(=O)C2CC2)[C@H]3c2cc3c(C)nc4c(F)c(-c5cccc(Cl)c5Cl)c(CCC#N)cc4c3n2[C@H]2[C@H]3CN[C@@H]2C3)c1F` (atropisomer, axis not shown; (Ra)) [Example 51, 3-((Ra)-1-((1R,4R,5S)-2-azabicyclo[2.1.1]hexan-5-yl)-2-((1S,5R,7R)-6-(cyclopropanecarbonyl)-3-(3-fluoro-4-methylpyridin-2-yl)-3,6-diazabicyclo[3.2.1]octan-7-yl)-7-(2,3-dichlorophenyl)-6-fluoro-4-methyl-1H-pyrrolo[3,2-c]quinolin-8-yl)propanenitrile] gave a Papp A→B at 120 min, 50 μM of 0.5 to 1 ×10⁻⁶ cm/s. For the same molecule, in data set [2], the “G12D_exchange” value is given as “†”. Further, the “G12V_exchange” value in data set [3] was “†”.

In data set [1], `Cc1ccc(F)c(N2C[C@@H]3C[C@H](C2)N(C(=O)C2CC2)[C@H]3c2cc3c(C)nc4c(F)c(-c5cccc(Cl)c5Cl)c(CCC#N)cc4c3n2[C@H]2[C@H]3CN[C@@H]2C3)n1` (atropisomer, axis not shown; (Ra)) [Example 52, 3-((Ra)-1-((1R,4R,5S)-2-azabicyclo[2.1.1]hexan-5-yl)-2-((1S,5R,7R)-6-(cyclopropanecarbonyl)-3-(3-fluoro-6-methylpyridin-2-yl)-3,6-diazabicyclo[3.2.1]octan-7-yl)-7-(2,3-dichlorophenyl)-6-fluoro-4-methyl-1H-pyrrolo[3,2-c]quinolin-8-yl)propanenitrile] displayed a Papp A→B at 120 min, 50 μM of 0.5 to 1 ×10⁻⁶ cm/s. The “G12D_exchange” value in data set [2] was “††”. Besides, in data set [3], the “G12V_exchange” value is “†”.

In the case of `Cc1cnc(N2C[C@@H]3C[C@H](C2)N(C(=O)C2CC2)[C@H]3c2cc3c(C)nc4c(F)c(-c5cccc(Cl)c5Cl)c(CCC#N)cc4c3n2[C@H]2[C@H]3CN[C@@H]2C3)c(F)c1` (atropisomer, axis not shown; (Ra)) [Example 53, 3-((Ra)-1-((1R,4R,5S)-2-azabicyclo[2.1.1]hexan-5-yl)-2-((1S,5R,7R)-6-(cyclopropanecarbonyl)-3-(3-fluoro-5-methylpyridin-2-yl)-3,6-diazabicyclo[3.2.1]octan-7-yl)-7-(2,3-dichlorophenyl)-6-fluoro-4-methyl-1H-pyrrolo[3,2-c]quinolin-8-yl)propanenitrile], the Papp A→B at 120 min, 50 μM in data set [1] was in the range of 0.5 to 1 ×10⁻⁶ cm/s. Besides, the “G12D_exchange” value in data set [2] is “†”. In data set [3], the “G12V_exchange” value was “†”.

On to `Cc1nc2c(F)c(-c3cccc(Cl)c3Cl)c(CCC#N)cc2c2c1cc([C@H]1[C@H]3C[C@H](CN(c4nccc(C(F)F)c4F)C3)N1C(=O)C1CC1)n2[C@H]1[C@H]2CN[C@@H]1C2` (atropisomer, axis not shown; (Ra)) [Example 54, 3-((Ra)-1-((1R,4R,5S)-2-azabicyclo[2.1.1]hexan-5-yl)-2-((1S,5R,7R)-6-(cyclopropanecarbonyl)-3-(4-(difluoromethyl)-3-fluoropyridin-2-yl)-3,6-diazabicyclo[3.2.1]octan-7-yl)-7-(2,3-dichlorophenyl)-6-fluoro-4-methyl-1H-pyrrolo[3,2-c]quinolin-8-yl)propanenitrile], for which, in data set [1], the apparent permeability from apical to basolateral (Papp A→B) at 120 min, 50 μM was no more than 0.5 ×10⁻⁶ cm/s. Moreover, the “G12D_exchange” value in data set [2] is recorded as “†”. Besides, the “G12V_exchange” value in data set [3] is “†”.

In data set [1], `COc1ccnc(N2C[C@@H]3C[C@H](C2)N(C(=O)C2CC2)[C@H]3c2cc3c(C)nc4c(F)c(-c5cccc(Cl)c5Cl)c(CCC#N)cc4c3n2[C@H]2[C@H]3CN[C@@H]2C3)c1F` (atropisomer, axis not shown; (Ra)) [Example 55, 3-((Ra)-1-((1R,4R,5S)-2-azabicyclo[2.1.1]hexan-5-yl)-2-((1S,5R,7R)-6-(cyclopropanecarbonyl)-3-(3-fluoro-4-methoxypyridin-2-yl)-3,6-diazabicyclo[3.2.1]octan-7-yl)-7-(2,3-dichlorophenyl)-6-fluoro-4-methyl-1H-pyrrolo[3,2-c]quinolin-8-yl)propanenitrile] returned an apical-to-basolateral permeability (Papp A→B) at 120 min, 50 μM of 0.5 to 1 ×10⁻⁶ cm/s. Also, the “G12D_exchange” value in data set [2] is listed as “††”. Also, the “G12V_exchange” value in data set [3] was “†”.

As a reminder, the Papp A→B is the apparent permeability from the apical to the basolateral side of a cell layer.
